Experimental data taken from US7803930B2, “Antisense modulation of apolipoprotein B-expression” (Isis Pharmaceuticals, Inc., priority 2002, dated 2010).
In the oligonucleotide strings, read from the 5' end, every base follows the letter of its sugar. An asterisk marks phosphorothioate; unmarked linkages are phosphodiester. Other units and linkages are bracketed, terminal groups are in braces. A string of capitals states the bases alone. e = 2'-O-(2-methoxyethyl) (MOE); [5mC] = 5-methylcytosine; d = 2'-deoxy (DNA)

Tested on: human apolipoprotein B mRNA
Assay: Inhibition of human apolipoprotein B mRNA levels in HepG2 cells, quantitative real-time PCR
Assay type: cell-based
Details: for % INHIB / % INHIB 50 nm / % INHIB 150 nm / % Change in apolipoprotein B mRNA expression / % inhibition of apolipoprotein B mRNA levels: HepG2 cells; for % INHIB (inhibition of human apolipoprotein B mRNA levels): HepG2 cells treated with 150 nM of compound, quantitative real-time PCR; for % inhibition of apolipoprotein B mRNA levels: normalized to untreated control, average of two experiments
Method in brief: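 Apolipoprotein B transcript was quantified by one-step TaqMan RT-PCR, normalized to GAPDH or RiboGreen RNA, and expressed as percent inhibition against an untreated-sample standard curve. HepG2 cells were harvested 16-24 h after oligonucleotide exposure, which was delivered with 3.75 μg/mL Lipofectin over 4-7 h at 80% confluency.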

[1] = human apolipoprotein B mRNA, oligonucleotides targeting genomic sequence SEQ ID NO 334, averages from two experiments
[2] = Table 1, 150 nM, averages from two experiments
[3] = Table 11 gene walk, 50 nM, averages from two experiments
[4] = Table 11 gene walk, 150 nM, averages from two experiments
[5] = Table 17 variable gap, 50 nM, averages from three experiments
[6] = Table 17 variable gap, 150 nM, averages from three experiments

301062 (e[5mC]*e[5mC]*eT*e[5mC]*eA*dG*d[5mC]*dG*dG*dA*d[5mC]*dA*d[5mC]*dA*d[5mC]*eA*e[5mC]*eA*e[5mC]*eA; antisense) [compound 301062]
% INHIB [1]: 21%

271007 (antisense e[5mC]*eT*eG*eA*eG*d[5mC]*dA*dG*d[5mC]*dT*dT*dG*dA*d[5mC]*dT*eG*eG*eT*e[5mC]*eT) [compound 271007]
% INHIB (inhibition of human apolipoprotein B mRNA levels) (averages from two experiments): 26%

147817 (antisense eG*e[5mC]*eA*eT*eG*dG*dT*d[5mC]*d[5mC]*d[5mC]*dA*dA*dG*dG*dA*eT*eG*eG*eT*e[5mC]) [compound 147817]
% INHIB [2]: 0%

271013 (antisense eG*eA*eA*e[5mC]*eT*dG*d[5mC]*d[5mC]*d[5mC]*dA*dT*d[5mC]*dA*dA*dT*e[5mC]*eT*eT*eG*eA) [compound 271013]
% INHIB (inhibition of human apolipoprotein B mRNA levels) (averages from two experiments): 19%

301061 (e[5mC]*eA*eT*eG*eA*d[5mC]*dT*dT*dA*d[5mC]*d[5mC]*dT*dG*dG*dA*e[5mC]*eA*eT*eG*eG; antisense) [compound 301061]
% INHIB [1]: 52%

301197 (antisense e[5mC]*eA*eT*eA*eG*d[5mC]*dT*d[5mC]*dA*d[5mC]*d[5mC]*dT*dT*dG*d[5mC]*eA*e[5mC]*eA*eT*eT) [compound 301197]
% INHIB [1]: 28%

308622 (eG*e[5mC]*e[5mC]*eT*eT*d[5mC]*dT*dG*d[5mC]*dT*dT*dG*dA*dG*dT*eT*eA*e[5mC]*eA*eA; antisense) [compound 308622]
% INHIB 50 nm (Table 13 gene walk, 50 nM, averages from two experiments): 25%
% INHIB 150 nm (Table 13 gene walk, 150 nM, averages from two experiments): 87%

147792 (antisense eG*eG*eA*e[5mC]*eA*d[5mC]*d[5mC]*dT*d[5mC]*dA*dA*dT*d[5mC]*dA*dG*e[5mC]*eT*eG*eT*eG) [compound 147792]
% INHIB [2]: 26%

332782 (antisense TCAGTCTGCTTCGC; all phosphorothioate, sugars by position and methylation of C not given here; 2'-MOE wings flank a DNA gap) [compound 332782]
% Change in apolipoprotein B mRNA expression (10 nM, 24 hour (Table 41)): −16%
% Change in apolipoprotein B mRNA expression (50 nM, 24 hour (Table 41)): −16%
% Change in apolipoprotein B mRNA expression (150 nM, 24 hour (Table 41)): −69%

301198 (antisense e[5mC]*eG*eG*eT*eG*d[5mC]*dA*d[5mC]*d[5mC]*d[5mC]*dT*dT*dT*dA*d[5mC]*e[5mC]*eT*eG*eA*eG) [compound 301198]
% INHIB [1]: 28%

301191 (antisense eT*eT*e[5mC]*eT*e[5mC]*dT*dT*d[5mC]*dA*dT*d[5mC]*dT*dG*dA*dA*eA*eA*eT*eA*e[5mC]) [compound 301191]
% INHIB [1]: 21%

301068 (eA*eT*eT*eT*e[5mC]*d[5mC]*d[5mC]*dA*d[5mC]*dT*dG*dG*dG*dT*dA*e[5mC]*eT*e[5mC]*eT*e[5mC]; antisense) [compound 301068]
% INHIB [1]: 44%

281626 (antisense eA*eT*eG*eT*eG*d[5mC]*dA*dT*d[5mC]*dG*dA*dT*dG*dG*dT*e[5mC]*eA*eT*eG*eG) [compound 281626]
% INHIB (inhibition of human apolipoprotein B mRNA levels) (averages from two experiments): 88%

308609 (e[5mC]*eA*eG*e[5mC]*e[5mC]*dA*d[5mC]*dA*dT*dG*d[5mC]*dA*dG*d[5mC]*dT*eT*e[5mC]*eA*eG*eG; antisense) [compound 308609]
% INHIB 50 nm [3]: 78%
% INHIB 150 nm [4]: 96%

308606 (eT*eT*eG*eA*eA*dT*dG*dT*d[5mC]*dA*dT*dG*dG*dT*dA*eG*e[5mC]*e[5mC]*eT*e[5mC]; antisense) [compound 308606]
% INHIB 50 nm [3]: 54%
% INHIB 150 nm [4]: 97%

301092 (antisense e[5mC]*eA*eT*eG*eA*d[5mC]*d[5mC]*dT*dA*d[5mC]*dT*dT*dG*dT*dA*eG*eG*eA*eG*eA) [compound 301092]
% INHIB [1]: 22%

271026 (eG*eA*e[5mC]*eT*e[5mC]*d[5mC]*dT*dT*d[5mC]*dA*dG*dA*dG*d[5mC]*d[5mC]*eA*eG*e[5mC]*eG*eG; antisense) [compound 271026]
% INHIB (inhibition of human apolipoprotein B mRNA levels) (averages from two experiments): 39%

301148 (eA*eG*eA*eA*eA*dT*dT*dT*d[5mC]*dA*d[5mC]*dT*dA*dG*dA*eT*eA*eG*eA*eT; antisense) [compound 301148]
% INHIB [1]: 31%

271001 (antisense e[5mC]*e[5mC]*e[5mC]*eA*eT*dG*dG*dT*dA*dG*dA*dA*dT*dT*dT*eG*eG*eA*e[5mC]*eA) [compound 271001]
% INHIB (inhibition of human apolipoprotein B mRNA levels) (averages from two experiments): 53%

332777 (antisense GCCTCAGTCTGCTTCGCA; sugars from the 5' end e5 d10 e3, all phosphorothioate, methylation of C not given here) [compound 332777]
% Change in apolipoprotein B mRNA expression (10 nM, 24 hour (Table 41)): −27%
% Change in apolipoprotein B mRNA expression (50 nM, 24 hour (Table 41)): −53%
% Change in apolipoprotein B mRNA expression (150 nM, 24 hour (Table 41)): -80%

308651 (antisense GCCTCAGTCTGCTTCGCGCC; 7-10-3 2'-MOE gapmer, phosphorothioate, chemistry not fully specified) [compound 308651]
% inhibition of apolipoprotein B mRNA levels (12.5 nM oligonucleotide): 57%
% inhibition of apolipoprotein B mRNA levels (37 nM oligonucleotide): 76%
% inhibition of apolipoprotein B mRNA levels (75 nM oligonucleotide): 84%
% inhibition of apolipoprotein B mRNA levels (150 nM oligonucleotide): 90%
% inhibition of apolipoprotein B mRNA levels (300 nM oligonucleotide): 88%
% INHIB 50 nm [5]: 87%
% INHIB 150 nm [6]: 88%

281638 (antisense eT*e[5mC]*e[5mC]*e[5mC]*eT*d[5mC]*dA*dT*d[5mC]*dT*dG*dA*dG*dA*dA*eT*e[5mC]*eT*eG*eG) [compound 281638]
% INHIB (inhibition of human apolipoprotein B mRNA levels) (averages from two experiments): 66%

271023 (antisense e[5mC]*e[5mC]*e[5mC]*eT*eT*dG*d[5mC]*dT*d[5mC]*dT*dA*d[5mC]*d[5mC]*dA*dA*eT*eG*e[5mC]*eT*eT) [compound 271023]
% INHIB (inhibition of human apolipoprotein B mRNA levels) (averages from two experiments): 44%

308642 (GCCTCAGTCTGCTTCGCGCC; 3-10-7 MOE gapmer, phosphorothioate, chemistry not fully specified) [compound 308642]
% inhibition of apolipoprotein B mRNA levels (12.5 nM oligonucleotide): 59%
% inhibition of apolipoprotein B mRNA levels (37 nM oligonucleotide): 84%
% inhibition of apolipoprotein B mRNA levels (75 nM oligonucleotide): 91%
% inhibition of apolipoprotein B mRNA levels (150 nM oligonucleotide): 97%
% inhibition of apolipoprotein B mRNA levels (300 nM oligonucleotide): 98%
% INHIB 50 nm [5]: 85%
% INHIB 150 nm [6]: 95%

271030 (e[5mC]*eA*eG*eT*eT*dA*dG*dA*dA*d[5mC]*dA*d[5mC]*dT*dG*dT*eG*eG*e[5mC]*e[5mC]*e[5mC]; antisense) [compound 271030]
% INHIB (inhibition of human apolipoprotein B mRNA levels) (averages from two experiments): 52%

301168 (antisense e[5mC]*eA*e[5mC]*eT*e[5mC]*dA*dT*dG*dA*d[5mC]*d[5mC]*dA*dG*dA*d[5mC]*eT*eA*eA*eG*eA) [compound 301168]
% INHIB [1]: 35%

332773 (antisense GCCTCATTATTATTCGCACC; sugars from the 5' end e5 d10 e5, all phosphorothioate, methylation of C not given here) [compound 332773]
% Change in apolipoprotein B mRNA expression (50 nM, 24 hour (Table 40)): +75%
% Change in apolipoprotein B mRNA expression (150 nM, 24 hour (Table 40)): +80%

301199 (antisense eT*e[5mC]*eT*e[5mC]*e[5mC]*dA*dG*dA*dT*d[5mC]*d[5mC]*dT*dA*dA*d[5mC]*eA*eT*eA*eA*eA) [compound 301199]
% INHIB [1]: 19%

308594 (antisense eT*eG*e[5mC]*eT*eT*d[5mC]*dG*d[5mC]*dA*d[5mC]*d[5mC]*dT*dT*d[5mC]*dT*eG*e[5mC]*eT*eT*eG) [compound 308594]
% INHIB 50 nm [3]: 57%
% INHIB 150 nm [4]: 88%

301217 (antisense eA*eG*eA*e[5mC]*eT*d[5mC]*d[5mC]*dA*dT*dT*dT*dA*dT*dT*dT*eG*eT*eT*e[5mC]*e[5mC]) [compound 301217]
% INHIB (inhibition of human apolipoprotein B mRNA levels) (averages from two experiments): 81%

308617 (eG*e[5mC]*eT*e[5mC]*e[5mC]*dT*dT*dT*dT*dA*dG*dG*dT*dT*dA*e[5mC]*e[5mC]*eA*eG*e[5mC]; antisense) [compound 308617]
% INHIB 50 nm [3]: 77%
% INHIB 150 nm [4]: 87%

308647 (antisense GCCTCAGTCTGCTTCGCACC; 4-10-6 2'-MOE gapmer, phosphorothioate, chemistry not fully specified) [compound 308647]
% INHIB 50 nm (50 nm oligonucleotide, variable deoxy gap position): 53%
% INHIB 150 nm (150 nm oligonucleotide, variable deoxy gap position): 86%

301040 (eG*e[5mC]*e[5mC]*e[5mC]*eT*dG*dG*dT*dG*d[5mC]*d[5mC]*dA*dG*d[5mC]*dT*eT*eT*eG*eG*eT; antisense) [compound 301040]
% INHIB (inhibition of human apolipoprotein B mRNA levels) (averages from two experiments): 74%

271005 (antisense eG*eG*e[5mC]*eA*e[5mC]*d[5mC]*d[5mC]*dA*dT*d[5mC]*dA*dG*dA*dA*dG*e[5mC]*eA*eG*e[5mC]*eT) [compound 271005]
% INHIB (inhibition of human apolipoprotein B mRNA levels) (averages from two experiments): 32%

301194 (antisense eG*eT*eT*e[5mC]*eT*d[5mC]*dA*dT*dG*dT*dT*dT*dA*d[5mC]*dT*eA*eA*eT*eG*e[5mC]) [compound 301194]
% INHIB [1]: 40%

301075 (eT*eT*e[5mC]*eA*eA*dG*dG*dG*d[5mC]*d[5mC]*dA*d[5mC]*dT*dG*d[5mC]*eT*eA*eT*e[5mC]*eA; antisense) [compound 301075]
% INHIB [1]: 52%
